According to the supplement of paper PMC11451515:

Legend:
Conditions in all cases: 48 h
NOMO1 [1] = experiment: AUC of viability dose-response curve (% viability x log10 dose units); higher = less sensitive
Procedure, shortened: (§1)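 Leukemia cells adapted to each medium (500 or 1000 cells/well, 1536-well plates) were exposed to library compounds in DMSO for 48 h at 37°C at 11 threefold doses, 47 μM to 0.79 nM. Luminescence by CellTiter-Glo One was normalised per plate to DMSO and cell-free wells, then fitted with a four-parameter log-logistic curve on log10 dose. Curves above full viability were scaled and quality-control failures removed before area under the curve was integrated by trapezoidal rule.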

P12-Ichikawa [2] = experiment: as above
Procedure, shortened: as §1

SEM cells [3] = experiment: as above
Procedure, shortened: as §1

SEM cells [4] = experiment: cell viability relative to DMSO control; higher = less cytotoxic
Procedure, shortened: (§2)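 Viability values are per-plate percentages of DMSO wells, with background from cell-free wells. Library compounds in DMSO were pin-dosed, in an 11-point threefold series from 47 μM to 0.79 nM, onto NOMO1 or SEM (500 cells/well) or P12-Ichikawa (1000 cells/well) leukemia cells in 1536-well plates (5 μl). Those cells had been adapted for at least four passages in each medium, and CellTiter-Glo One luminescence was read after 48 h at 37°C.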

NOMO1 [5] = experiment: as above
Procedure, shortened: as §2

P12-Ichikawa [6] = experiment: as above
Procedure, shortened: as §2

CCc1cccc(CC)c1NC(=O)N1Cc2[nH]nc(NC(=O)c3ccc(N4CCN(C)CC4)cc3)c2C1
AUC of viability dose-response curve
Conditions | NOMO1 [1] | P12-Ichikawa [2] | SEM cells [3]
HPLM + 10% dialyzed FBS | 415 | 356 | 372
RPMI 5 mM glucose + 10% FBS | 403 | 361 | 341
RPMI 5 mM glucose + 10% dialyzed FBS | 394 | 373 | 344

SEM cells [4], HPLM + 10% dialyzed FBS
Conditions | cell viability [%]
0.000781 µM | 100
0.00234 µM | 121
0.00702 µM | 130
0.0211 µM | 128
0.0632 µM | 133
0.19 µM | 138
0.569 µM | 113
1.71 µM | 89.2
5.12 µM | 57.5
15.4 µM | 22.1
46.1 µM | 7.86

C[N+]1(C)[C@@H]2C[C@@H](OC(=O)[C@H](CO)c3ccccc3)C[C@H]1[C@@H]1O[C@@H]12.[Br-]
AUC of viability dose-response curve
Conditions | NOMO1 [1] | P12-Ichikawa [2] | SEM cells [3]
HPLM + 10% dialyzed FBS | 457 | 456 | 448
RPMI 5 mM glucose + 10% FBS | 423 | 424 | 467
RPMI 5 mM glucose + 10% dialyzed FBS | 442 | 435 | 462

cell viability [%]
Conditions | NOMO1 [5] | P12-Ichikawa [6] | SEM cells [4]
HPLM + 10% dialyzed FBS, 0.000781 µM | 91.9 | 88.6 | 85
HPLM + 10% dialyzed FBS, 0.00234 µM | 95.1 | 94.2 | 94.6
HPLM + 10% dialyzed FBS, 0.00702 µM | 108 | 94.3 | 96.1
HPLM + 10% dialyzed FBS, 0.0211 µM | 113 | 102 | 93.9
HPLM + 10% dialyzed FBS, 0.0632 µM | 105 | 104 | 105
HPLM + 10% dialyzed FBS, 0.19 µM | 99.4 | 104 | 102
HPLM + 10% dialyzed FBS, 0.569 µM | 86.5 | 96.9 | 110
HPLM + 10% dialyzed FBS, 1.71 µM | 93.5 | 90.8 | 117
HPLM + 10% dialyzed FBS, 5.12 µM | 99.5 | 100 | 103
HPLM + 10% dialyzed FBS, 15.4 µM | 89.2 | 106 | 114
HPLM + 10% dialyzed FBS, 46.1 µM | 101 | 102 | 102
RPMI 5 mM glucose + 10% FBS, 0.000781 µM | 95.5 | 95 | 92.3
RPMI 5 mM glucose + 10% FBS, 0.00234 µM | 91.8 | 103 | 90.4
RPMI 5 mM glucose + 10% FBS, 0.00702 µM | 86.6 | 105 | 102
RPMI 5 mM glucose + 10% FBS, 0.0211 µM | 89.4 | 99.1 | 95.1
RPMI 5 mM glucose + 10% FBS, 0.0632 µM | 85 | 108 | 100
RPMI 5 mM glucose + 10% FBS, 0.19 µM | 88.5 | 99.2 | 92
RPMI 5 mM glucose + 10% FBS, 0.569 µM | 86.9 | 101 | 107
RPMI 5 mM glucose + 10% FBS, 1.71 µM | 90.3 | 98.7 | 112
RPMI 5 mM glucose + 10% FBS, 5.12 µM | 90.4 | 97.8 | 105
RPMI 5 mM glucose + 10% FBS, 15.4 µM | 86.1 | 122 | 93.3
RPMI 5 mM glucose + 10% FBS, 46.1 µM | 86.8 | 110 | 89.5
RPMI 5 mM glucose + 10% dialyzed FBS, 0.000781 µM | 83 | 82.4 | 77.3
RPMI 5 mM glucose + 10% dialyzed FBS, 0.00234 µM | 90.5 | 47.6 | 87.2
RPMI 5 mM glucose + 10% dialyzed FBS, 0.00702 µM | 86.9 | 90.7 | 109
RPMI 5 mM glucose + 10% dialyzed FBS, 0.0211 µM | 91 | 90.7 | 98.6
RPMI 5 mM glucose + 10% dialyzed FBS, 0.0632 µM | 91.6 | 97.8 | 105
RPMI 5 mM glucose + 10% dialyzed FBS, 0.19 µM | 90.8 | 99.5 | 107
RPMI 5 mM glucose + 10% dialyzed FBS, 0.569 µM | 91.6 | 101 | 112
RPMI 5 mM glucose + 10% dialyzed FBS, 1.71 µM | 97.2 | 89.9 | 105
RPMI 5 mM glucose + 10% dialyzed FBS, 5.12 µM | 107 | 91.2 | 121
RPMI 5 mM glucose + 10% dialyzed FBS, 15.4 µM | 89 | 99.6 | 103
RPMI 5 mM glucose + 10% dialyzed FBS, 46.1 µM | 98.7 | 103 | 101

CC(=O)O[C@@]1(CC[C@H]2[C@@H]3\C=C(C)/C4=C/C(=O)CC[C@]4(C)[C@H]3CC[C@]12C)C(C)=O
AUC of viability dose-response curve
Conditions | NOMO1 [1] | P12-Ichikawa [2] | SEM cells [3]
HPLM + 10% dialyzed FBS | 459 | 470 | 444
RPMI 5 mM glucose + 10% FBS | 465 | 460 | 455
RPMI 5 mM glucose + 10% dialyzed FBS | 449 | 464 | 472

cell viability [%]
Conditions | NOMO1 [5] | P12-Ichikawa [6] | SEM cells [4]
HPLM + 10% dialyzed FBS, 0.000781 µM | 115 | 99.7 | 79.1
HPLM + 10% dialyzed FBS, 0.00234 µM | 111 | 115 | 80
HPLM + 10% dialyzed FBS, 0.00702 µM | 107 | 109 | 82
HPLM + 10% dialyzed FBS, 0.0211 µM | 96.1 | 114 | 82.7
HPLM + 10% dialyzed FBS, 0.0632 µM | 109 | 109 | 105
HPLM + 10% dialyzed FBS, 0.19 µM | 123 | 117 | 99.4
HPLM + 10% dialyzed FBS, 0.569 µM | 130 | 112 | 95.8
HPLM + 10% dialyzed FBS, 1.71 µM | 107 | 112 | 99.2
HPLM + 10% dialyzed FBS, 5.12 µM | 110 | 115 | 108
HPLM + 10% dialyzed FBS, 15.4 µM | 116 | 106 | 98.4
HPLM + 10% dialyzed FBS, 46.1 µM | 119 | 89.1 | 104
RPMI 5 mM glucose + 10% FBS, 0.000781 µM | 100 | 101 | 89.3
RPMI 5 mM glucose + 10% FBS, 0.00234 µM | 102 | 107 | 83.8
RPMI 5 mM glucose + 10% FBS, 0.00702 µM | 99.9 | 110 | 86.7
RPMI 5 mM glucose + 10% FBS, 0.0211 µM | 110 | 117 | 97.6
RPMI 5 mM glucose + 10% FBS, 0.0632 µM | 101 | 115 | 93.5
RPMI 5 mM glucose + 10% FBS, 0.19 µM | 108 | 117 | 101
RPMI 5 mM glucose + 10% FBS, 0.569 µM | 107 | 120 | 100
RPMI 5 mM glucose + 10% FBS, 1.71 µM | 110 | 109 | 104
RPMI 5 mM glucose + 10% FBS, 5.12 µM | 109 | 100 | 95
RPMI 5 mM glucose + 10% FBS, 15.4 µM | 99 | 99.5 | 106
RPMI 5 mM glucose + 10% FBS, 46.1 µM | 108 | 85.5 | 99.7
RPMI 5 mM glucose + 10% dialyzed FBS, 0.000781 µM | 88.1 | 94.9 | 96.5
RPMI 5 mM glucose + 10% dialyzed FBS, 0.00234 µM | 92.1 | 102 | 96.7
RPMI 5 mM glucose + 10% dialyzed FBS, 0.00702 µM | 95.5 | 101 | 104
RPMI 5 mM glucose + 10% dialyzed FBS, 0.0211 µM | 113 | 112 | 109
RPMI 5 mM glucose + 10% dialyzed FBS, 0.0632 µM | 102 | 103 | 101
RPMI 5 mM glucose + 10% dialyzed FBS, 0.19 µM | 112 | 108 | 100
RPMI 5 mM glucose + 10% dialyzed FBS, 0.569 µM | 107 | 106 | 107
RPMI 5 mM glucose + 10% dialyzed FBS, 1.71 µM | 118 | 107 | 115
RPMI 5 mM glucose + 10% dialyzed FBS, 5.12 µM | 105 | 98.2 | 96.2
RPMI 5 mM glucose + 10% dialyzed FBS, 15.4 µM | 86.8 | 93.2 | 108
RPMI 5 mM glucose + 10% dialyzed FBS, 46.1 µM | 112 | 79 | 81.7
